# Measurements reported in publication PMC11285948, “The effects of CYP2B6 inactivators on the metabolism of ciprofol” (PLOS ONE, 2024).
# Values joined by “and” are separate entries in the source; they are usually repeats but may differ in a detail not shown here. Identical values can stand only once.
# Key:
# [1] = test system: human liver microsomes (HLMs); assay: Ciprofol metabolism in HLM incubation system (incubation time, protein concentration, enzyme kinetics); format: in vitro ADME; conditions: for reduction of ciprofol ΔC (Enzymatic reaction kinetics): ΔC1-ΔC3 and Mean; for ciprofol concentration in incubation system (Incubation time) / ciprofol concentration in incubation system (Liver microsomal protein concentration): C1-C3 and Mean; for ciprofol concentration in incubation system (Liver microsomal protein concentration): ciprofol 40 μg·mL^-1, 60 min
# Experimental: The volume of the incubation system was 200 μL and included 2 μL of substrate (ciprofol), 8 μL of rat liver microsomes (RLMs) or 6 μL of human liver microsomes (HLMs), 12 μL of NADPH generation system of solution (solution A 10 μL, solution B 2 μL), and the remaining volume was PBS. The incubation was performed in a water bath at a constant temperature of 37°C, and each sample was incubated three times in parallel.
# The incubation system was removed from the water bath, and the reaction was terminated immediately by adding 800 μL of reaction termination solution (acetonitrile solution containing 5 μg·mL^-1 D6-ciprofol at 4°C). The mixture was vortexed for 2 min and centrifuged for 15 min, after which the supernatant was transferred to an autosampler vial for HPLC-MS/MS detection.
# The concentrations of ciprofol and liver microsomal proteins in the RLM incubation system were set at 25 μg·mL^-1 and 0.8 mg·mL^-1, respectively, whereas those in the HLM incubation system were set at 40 μg·mL^-1 and 0.6 mg·mL^-1, respectively. Samples were obtained and assayed after 0, 10, 20, 30, 40, 60, 80, 100 and 120 min of incubation, and the optimum incubation time was determined according to the decreasing trend in ciprofol concentration.
# The ciprofol concentrations in the RLM and HLM incubation systems were set at 25 and 40 μg·mL^-1, respectively. The liver microsomal protein concentrations were 0, 0.1, 0.2, 0.4, 0.6, 0.8 and 1.0 mg·mL^-1. The optimal protein concentration in the incubation system was determined based on the reduction of ciprofol (ΔC) after 40 min of incubation in RLMs and 60 min in HLMs.
# The liver microsomal protein concentrations in the RLM incubation system and the HLM incubation system were 0.8 mg·mL^-1 and 0.6 mg·mL^-1, and the cells were incubated for 40 min and 60 min, respectively. The ciprofol concentrations in the incubation system were set at 4, 8, 16, 32, 48 and 80 μg·mL^-1, and the kinetic parameters of ciprofol metabolism were investigated based on ΔC values at different initial ciprofol concentrations (C0).
# The substrate elimination method was employed in this study, and GraphPad Prism 8.0.2 software was used for statistical processing, including determination of the kinetic parameters of ciprofol metabolism and the IC50 values of psoralen and clopidogrel for ciprofol metabolism. The maximum velocity (Vmax), Michaelis constant (Km) and intrinsic clearance (CLint) were calculated using the […]: V=Vmax×[S]/Km+[S] CLint=Vmax/Km
# [2] = clinical trials; cited from earlier work
smiles,measurement,setting,value
CC(C)c1cccc([C@H](C)C2CC2)c1O [ciprofol],Km of ciprofol metabolism,"[1]; HLMs 0.6 mg·mL^-1, 60 min",40.07 µg/mL
same,Vmax of ciprofol metabolism,"[1]; HLMs 0.6 mg·mL^-1, 60 min",42.39 ng·min^-1·mg protein^-1
same,reduction of ciprofol ΔC (Enzymatic reaction kinetics),"[1]; HLMs 0.6 mg·mL^-1, 60 min, initial ciprofol C 4 μg/mL",3.114 µg/mL and 3.093 µg/mL and 3.175 µg/mL and 3.13 µg/mL
same,reduction of ciprofol ΔC (Enzymatic reaction kinetics),"[1]; HLMs 0.6 mg·mL^-1, 60 min, initial ciprofol C 8 μg/mL",6.89 µg/mL and 6.98 µg/mL and 7.022 µg/mL and 6.96 µg/mL
same,reduction of ciprofol ΔC (Enzymatic reaction kinetics),"[1]; HLMs 0.6 mg·mL^-1, 60 min, initial ciprofol C 16 μg/mL",12.73 µg/mL and 12.88 µg/mL and 12.21 µg/mL and 12.61 µg/mL
same,reduction of ciprofol ΔC (Enzymatic reaction kinetics),"[1]; HLMs 0.6 mg·mL^-1, 60 min, initial ciprofol C 32 μg/mL",17.77 µg/mL and 19.4 µg/mL and 16.95 µg/mL and 18.04 µg/mL
same,reduction of ciprofol ΔC (Enzymatic reaction kinetics),"[1]; HLMs 0.6 mg·mL^-1, 60 min, initial ciprofol C 48 μg/mL",23.33 µg/mL and 25.1 µg/mL and 23.91 µg/mL and 24.11 µg/mL
same,reduction of ciprofol ΔC (Enzymatic reaction kinetics),"[1]; HLMs 0.6 mg·mL^-1, 60 min, initial ciprofol C 80 μg/mL",28.42 µg/mL and 27.74 µg/mL and 27.36 µg/mL and 27.84 µg/mL
same,ciprofol concentration in incubation system (Incubation time),"[1]; HLMs 0.6 mg·mL^-1, ciprofol 40 μg·mL^-1, T 0 min",37.89 µg/mL and 38.98 µg/mL and 40.56 µg/mL and 39.14 µg/mL
same,ciprofol concentration in incubation system (Incubation time),"[1]; HLMs 0.6 mg·mL^-1, ciprofol 40 μg·mL^-1, T 10 min",36.11 µg/mL and 34.79 µg/mL and 36.39 µg/mL and 35.76 µg/mL
same,ciprofol concentration in incubation system (Incubation time),"[1]; HLMs 0.6 mg·mL^-1, ciprofol 40 μg·mL^-1, T 20 min",31.73 µg/mL and 29.56 µg/mL and 32.69 µg/mL and 31.33 µg/mL
same,ciprofol concentration in incubation system (Incubation time),"[1]; HLMs 0.6 mg·mL^-1, ciprofol 40 μg·mL^-1, T 30 min",28.14 µg/mL and 24.88 µg/mL and 28.27 µg/mL and 27.10 µg/mL
same,ciprofol concentration in incubation system (Incubation time),"[1]; HLMs 0.6 mg·mL^-1, ciprofol 40 μg·mL^-1, T 40 min",26.01 µg/mL and 21.75 µg/mL and 25.61 µg/mL and 24.46 µg/mL
same,ciprofol concentration in incubation system (Incubation time),"[1]; HLMs 0.6 mg·mL^-1, ciprofol 40 μg·mL^-1, T 60 min",21.50 µg/mL and 18.33 µg/mL and 20.08 µg/mL and 19.97 µg/mL
same,ciprofol concentration in incubation system (Incubation time),"[1]; HLMs 0.6 mg·mL^-1, ciprofol 40 μg·mL^-1, T 80 min",19.59 µg/mL and 17.50 µg/mL and 18.53 µg/mL and 18.54 µg/mL
same,ciprofol concentration in incubation system (Incubation time),"[1]; HLMs 0.6 mg·mL^-1, ciprofol 40 μg·mL^-1, T 100 min",18.42 µg/mL and 15.96 µg/mL and 17.83 µg/mL and 17.40 µg/mL
same,ciprofol concentration in incubation system (Incubation time),"[1]; HLMs 0.6 mg·mL^-1, ciprofol 40 μg·mL^-1, T 120 min",17.25 µg/mL and 14.82 µg/mL and 15.95 µg/mL and 16.01 µg/mL
same,ciprofol concentration in incubation system (Liver microsomal protein concentration),"[1]; HLMs, Cprotein 0 mg/mL",39.87 µg/mL and 40.23 µg/mL and 38.51 µg/mL and 39.54 µg/mL
same,ciprofol concentration in incubation system (Liver microsomal protein concentration),"[1]; HLMs, Cprotein 0.1 mg/mL",35.11 µg/mL and 36.09 µg/mL and 35.34 µg/mL and 35.51 µg/mL
same,ciprofol concentration in incubation system (Liver microsomal protein concentration),"[1]; HLMs, Cprotein 0.2 mg/mL",30.78 µg/mL and 30.52 µg/mL and 29.4 µg/mL and 30.23 µg/mL
same,ciprofol concentration in incubation system (Liver microsomal protein concentration),"[1]; HLMs, Cprotein 0.4 mg/mL",24.5 µg/mL and 24.31 µg/mL and 22.53 µg/mL and 23.78 µg/mL
same,ciprofol concentration in incubation system (Liver microsomal protein concentration),"[1]; HLMs, Cprotein 0.6 mg/mL",20.49 µg/mL and 20.86 µg/mL and 19.64 µg/mL and 20.33 µg/mL
same,ciprofol concentration in incubation system (Liver microsomal protein concentration),"[1]; HLMs, Cprotein 0.8 mg/mL",19.89 µg/mL and 20.13 µg/mL and 19.02 µg/mL and 19.68 µg/mL
same,ciprofol concentration in incubation system (Liver microsomal protein concentration),"[1]; HLMs, Cprotein 1 mg/mL",19.11 µg/mL and 19.68 µg/mL and 20.54 µg/mL and 19.78 µg/mL
same,CLint of ciprofol,"[1]; HLMs, CLint=Vmax/Km",1.06 mL·min^-1·mg protein^-1
same,incidence of pain on injection relative to that caused by propofol,[2],1/10
